Laboratory results from patent publication US7709441B2, “Control of function of intracellular Ca ion” (Japan Science and Technology Agency, priority 2003, dated 2010).
Read-outs that look alike come from different tables or passages of the source.

What was measured:
Purkinje cells = conditions: intact Purkinje cells; read-out: EC50 of IP3 for IP3-induced Ca2+ release; cited from earlier work
IP3R1 [1] = target: T1, IP3R1 (Mus musculus, UniProt P11881); assay: [3H]IP3 binding assay with purified IP3R1 in the presence or absence of CARP (Scatchard plot); conditions: for Kd: mean of three separate experiments, read-out: dissociation constant (Kd±S.D.) of IP3 binding to IP3R1
Experimental: The inventors conducted a binding assay using purified IP3R1, to evaluate effect of CARP on IP3-binding affinity to IP3R1. Purified IP3R1 was incubated with various concentration of [^3H] IP3 in the presence or absence of purified recombinant CARP, and analyzed by a Scatchard plot.
IP3 binding to IP3R1 by IP3 in the presence (▪ in FIG. 6) and in the absence (● in FIG. 6) of CARP. In FIG. 6, the horizontal axis represents an amount of binding IP3 (pmol/mg), and the vertical axis represents an amount of binding IP3 divided by an amount of non-binding IP3 (pmol/mg/nM).
[^3H]IP3 binding to IP3R1 was assayed by polyethylene glycol precipitation in the presence or absence of CARP in accordance with the method as reported previously (Maeda, N., Niinobe, M., et al, (1990), EMBO J.,9,61-67). 0.5 μg of purified IP3R1 was incubated with or without 10 μg of purified His-CARP in 50 μL of a solution containing 50 mM Tris-HCl, pH 8.0, 1 mM EDTA, 1 mM 2-mercaptoethanol, 9.6 nM [^3H] IP3 and different concentration of IP3, for 10 min at 4° C. Nonspecific binding was measured in the presence of 10 μM IP3.
Target sequence in this assay (P11881 whole entry): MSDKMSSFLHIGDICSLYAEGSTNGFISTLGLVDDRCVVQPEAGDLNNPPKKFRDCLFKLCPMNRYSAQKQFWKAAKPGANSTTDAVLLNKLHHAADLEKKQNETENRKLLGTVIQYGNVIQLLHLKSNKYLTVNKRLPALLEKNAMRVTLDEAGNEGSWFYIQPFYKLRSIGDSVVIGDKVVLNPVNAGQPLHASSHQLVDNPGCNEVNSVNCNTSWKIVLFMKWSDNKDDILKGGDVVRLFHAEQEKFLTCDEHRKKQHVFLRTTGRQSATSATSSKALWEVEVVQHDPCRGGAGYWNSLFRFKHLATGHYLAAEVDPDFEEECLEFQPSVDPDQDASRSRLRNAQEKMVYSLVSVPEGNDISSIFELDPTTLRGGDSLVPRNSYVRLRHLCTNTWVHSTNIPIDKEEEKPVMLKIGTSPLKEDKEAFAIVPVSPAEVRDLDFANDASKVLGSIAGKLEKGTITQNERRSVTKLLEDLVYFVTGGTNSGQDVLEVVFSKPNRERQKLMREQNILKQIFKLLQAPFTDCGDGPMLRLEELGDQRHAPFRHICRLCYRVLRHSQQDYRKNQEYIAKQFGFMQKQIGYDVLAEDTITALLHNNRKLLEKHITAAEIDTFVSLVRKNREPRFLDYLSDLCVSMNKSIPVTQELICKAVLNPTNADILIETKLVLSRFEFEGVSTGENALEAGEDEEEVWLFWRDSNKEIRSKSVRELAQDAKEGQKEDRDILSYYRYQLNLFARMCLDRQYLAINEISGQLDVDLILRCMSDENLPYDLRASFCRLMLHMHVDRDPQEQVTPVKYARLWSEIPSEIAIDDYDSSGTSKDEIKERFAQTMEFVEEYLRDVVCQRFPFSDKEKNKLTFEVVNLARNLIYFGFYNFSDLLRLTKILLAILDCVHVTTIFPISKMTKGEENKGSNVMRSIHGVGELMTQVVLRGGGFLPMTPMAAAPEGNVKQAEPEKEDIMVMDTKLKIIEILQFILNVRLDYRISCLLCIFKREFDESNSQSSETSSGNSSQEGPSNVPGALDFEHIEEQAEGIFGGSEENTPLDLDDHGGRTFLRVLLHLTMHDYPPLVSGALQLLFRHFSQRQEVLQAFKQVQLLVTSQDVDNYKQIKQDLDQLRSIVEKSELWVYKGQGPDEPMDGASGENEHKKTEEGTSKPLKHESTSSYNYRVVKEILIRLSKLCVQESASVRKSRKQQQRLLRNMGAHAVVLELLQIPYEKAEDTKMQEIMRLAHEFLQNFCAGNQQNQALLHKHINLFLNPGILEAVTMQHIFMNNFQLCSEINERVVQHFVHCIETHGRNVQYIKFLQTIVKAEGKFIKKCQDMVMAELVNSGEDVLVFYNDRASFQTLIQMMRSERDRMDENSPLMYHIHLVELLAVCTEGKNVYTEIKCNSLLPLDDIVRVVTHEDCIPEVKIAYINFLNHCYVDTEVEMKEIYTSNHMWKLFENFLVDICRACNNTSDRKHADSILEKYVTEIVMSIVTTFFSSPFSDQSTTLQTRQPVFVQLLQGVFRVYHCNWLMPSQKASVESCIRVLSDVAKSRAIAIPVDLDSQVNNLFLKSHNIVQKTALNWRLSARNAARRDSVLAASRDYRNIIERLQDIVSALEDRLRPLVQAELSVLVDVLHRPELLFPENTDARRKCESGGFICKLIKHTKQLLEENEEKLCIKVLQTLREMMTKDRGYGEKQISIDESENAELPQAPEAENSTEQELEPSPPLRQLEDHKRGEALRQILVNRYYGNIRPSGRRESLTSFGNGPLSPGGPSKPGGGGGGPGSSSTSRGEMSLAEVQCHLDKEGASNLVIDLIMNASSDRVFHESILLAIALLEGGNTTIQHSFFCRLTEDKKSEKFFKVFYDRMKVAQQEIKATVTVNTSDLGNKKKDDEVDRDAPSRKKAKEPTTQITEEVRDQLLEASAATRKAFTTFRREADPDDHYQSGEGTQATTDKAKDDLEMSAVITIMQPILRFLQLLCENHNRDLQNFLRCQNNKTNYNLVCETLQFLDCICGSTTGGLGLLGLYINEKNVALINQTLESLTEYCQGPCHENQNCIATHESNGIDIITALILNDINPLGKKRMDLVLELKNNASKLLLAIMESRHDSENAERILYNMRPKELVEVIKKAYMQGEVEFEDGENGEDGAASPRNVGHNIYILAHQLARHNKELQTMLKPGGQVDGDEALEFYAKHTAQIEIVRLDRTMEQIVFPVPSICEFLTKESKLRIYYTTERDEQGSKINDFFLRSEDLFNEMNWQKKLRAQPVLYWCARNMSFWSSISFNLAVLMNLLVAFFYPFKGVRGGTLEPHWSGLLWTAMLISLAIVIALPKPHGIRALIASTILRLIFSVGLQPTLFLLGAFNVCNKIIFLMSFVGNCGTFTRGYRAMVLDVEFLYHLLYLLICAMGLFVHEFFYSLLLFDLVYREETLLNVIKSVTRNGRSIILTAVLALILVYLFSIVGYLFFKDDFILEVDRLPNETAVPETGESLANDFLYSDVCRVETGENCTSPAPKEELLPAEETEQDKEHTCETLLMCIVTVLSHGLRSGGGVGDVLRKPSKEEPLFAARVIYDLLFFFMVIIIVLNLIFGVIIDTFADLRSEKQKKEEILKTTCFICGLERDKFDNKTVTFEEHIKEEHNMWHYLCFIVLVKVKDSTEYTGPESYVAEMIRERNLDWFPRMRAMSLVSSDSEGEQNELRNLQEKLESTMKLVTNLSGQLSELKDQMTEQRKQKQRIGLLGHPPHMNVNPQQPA

IP3R1 [2] = conditions: other tissues or isolated IP3R1; read-out: EC50 of IP3 for IP3-induced Ca2+ release; cited from earlier work
[3] = target: T2, GST-EL (amino acids 1-2217 of mIP3R1) (Mus musculus, UniProt P11881); assay: Pull-down assay with GST-EL (soluble IP3R1), immunoblot with anti-CARP antibody; format: binding; conditions: mouse cerebellar cytosolic fraction; GST as control
T2 construct: (amino acids 1-2217 of mIP3R1) and has GST in its N terminus; made in house; host or cells: Sf9 cells (recombinant baculovirus)
Description: (§1) Next, the inventors of the present application examined the interaction between CARP and IP3R1 by means of a pull-down method in order to obtain further evidence for the interaction by biochemical methods. The inventors first developed expression system in Sf9 cells, and made IP3R1 soluble by removing the channel domain. The soluble IP3R1, designated GST-EL, covers both the ligand binding domain and modulatory domain (amino acids 1-2217 of mIP3R1) and has GST in its N terminus. Mouse cerebellar cytosolic fraction was incubated with GST-EL or GST, and binding of CARP to the recombinant proteins was analyzed by immunoblotting with anti-CARP antibody. The results are shown in photographs of FIG. 4 which are substituted for drawings.
Adult mouse cerebella were homogenized in 10 mM HEPES (pH 7.4), 320 mM Sucrose, 2 mM EDTA, 1 mM 2-mercaptoethanol, and protease inhibitors and the homogenate was centrifuged at 1,000×g for 10 min. The supernatant was centrifuged at 100,000×g for 60 min to obtain the cytosolic fraction (the supernatant) and the crude microsome (the pellet). The cytosolic fraction was added with 100 mM NaCl, and incubated with 20 μg of GST-EL or GST for 2 hours at 4° C. […] The eluted proteins were analyzed by Western blotting with anti-CARP antibody. […]

[4] = reported; cited from earlier work
IP3R1 [5] = target: T1, IP3R1; assay: Pull-down assay with GST-CARP on detergent extract of mouse cerebellar microsome, immunoblot with anti-IP3R1 antibody; format: binding; set-up: The crude microsome was solubilized with 1% Triton X-100; from tissue; host or cells: adult mouse cerebellum, crude microsome solubilized with Triton X-100 (GST-CARP made in Escherichia coli); conditions: GST as control
Description: as §1
The crude microsome was solubilized with 1% Triton X-100, and dissolved in 50 mM HEPES (pH7.4), 2 mM EDTA, 1 mM 2-mercaptoethanol, and protease inhibitors for 30 min at 4° C., and centrifuged at 20,000×g for 30 min. The supernatants were processed for pull-down assay with 10 μg of GST-CARP or GST as described above, and bound proteins were subjected to immunoblot analysis with anti-IP3R1 antibody KM1112.

T2 sequence (P11881 1-2217, one chain of several): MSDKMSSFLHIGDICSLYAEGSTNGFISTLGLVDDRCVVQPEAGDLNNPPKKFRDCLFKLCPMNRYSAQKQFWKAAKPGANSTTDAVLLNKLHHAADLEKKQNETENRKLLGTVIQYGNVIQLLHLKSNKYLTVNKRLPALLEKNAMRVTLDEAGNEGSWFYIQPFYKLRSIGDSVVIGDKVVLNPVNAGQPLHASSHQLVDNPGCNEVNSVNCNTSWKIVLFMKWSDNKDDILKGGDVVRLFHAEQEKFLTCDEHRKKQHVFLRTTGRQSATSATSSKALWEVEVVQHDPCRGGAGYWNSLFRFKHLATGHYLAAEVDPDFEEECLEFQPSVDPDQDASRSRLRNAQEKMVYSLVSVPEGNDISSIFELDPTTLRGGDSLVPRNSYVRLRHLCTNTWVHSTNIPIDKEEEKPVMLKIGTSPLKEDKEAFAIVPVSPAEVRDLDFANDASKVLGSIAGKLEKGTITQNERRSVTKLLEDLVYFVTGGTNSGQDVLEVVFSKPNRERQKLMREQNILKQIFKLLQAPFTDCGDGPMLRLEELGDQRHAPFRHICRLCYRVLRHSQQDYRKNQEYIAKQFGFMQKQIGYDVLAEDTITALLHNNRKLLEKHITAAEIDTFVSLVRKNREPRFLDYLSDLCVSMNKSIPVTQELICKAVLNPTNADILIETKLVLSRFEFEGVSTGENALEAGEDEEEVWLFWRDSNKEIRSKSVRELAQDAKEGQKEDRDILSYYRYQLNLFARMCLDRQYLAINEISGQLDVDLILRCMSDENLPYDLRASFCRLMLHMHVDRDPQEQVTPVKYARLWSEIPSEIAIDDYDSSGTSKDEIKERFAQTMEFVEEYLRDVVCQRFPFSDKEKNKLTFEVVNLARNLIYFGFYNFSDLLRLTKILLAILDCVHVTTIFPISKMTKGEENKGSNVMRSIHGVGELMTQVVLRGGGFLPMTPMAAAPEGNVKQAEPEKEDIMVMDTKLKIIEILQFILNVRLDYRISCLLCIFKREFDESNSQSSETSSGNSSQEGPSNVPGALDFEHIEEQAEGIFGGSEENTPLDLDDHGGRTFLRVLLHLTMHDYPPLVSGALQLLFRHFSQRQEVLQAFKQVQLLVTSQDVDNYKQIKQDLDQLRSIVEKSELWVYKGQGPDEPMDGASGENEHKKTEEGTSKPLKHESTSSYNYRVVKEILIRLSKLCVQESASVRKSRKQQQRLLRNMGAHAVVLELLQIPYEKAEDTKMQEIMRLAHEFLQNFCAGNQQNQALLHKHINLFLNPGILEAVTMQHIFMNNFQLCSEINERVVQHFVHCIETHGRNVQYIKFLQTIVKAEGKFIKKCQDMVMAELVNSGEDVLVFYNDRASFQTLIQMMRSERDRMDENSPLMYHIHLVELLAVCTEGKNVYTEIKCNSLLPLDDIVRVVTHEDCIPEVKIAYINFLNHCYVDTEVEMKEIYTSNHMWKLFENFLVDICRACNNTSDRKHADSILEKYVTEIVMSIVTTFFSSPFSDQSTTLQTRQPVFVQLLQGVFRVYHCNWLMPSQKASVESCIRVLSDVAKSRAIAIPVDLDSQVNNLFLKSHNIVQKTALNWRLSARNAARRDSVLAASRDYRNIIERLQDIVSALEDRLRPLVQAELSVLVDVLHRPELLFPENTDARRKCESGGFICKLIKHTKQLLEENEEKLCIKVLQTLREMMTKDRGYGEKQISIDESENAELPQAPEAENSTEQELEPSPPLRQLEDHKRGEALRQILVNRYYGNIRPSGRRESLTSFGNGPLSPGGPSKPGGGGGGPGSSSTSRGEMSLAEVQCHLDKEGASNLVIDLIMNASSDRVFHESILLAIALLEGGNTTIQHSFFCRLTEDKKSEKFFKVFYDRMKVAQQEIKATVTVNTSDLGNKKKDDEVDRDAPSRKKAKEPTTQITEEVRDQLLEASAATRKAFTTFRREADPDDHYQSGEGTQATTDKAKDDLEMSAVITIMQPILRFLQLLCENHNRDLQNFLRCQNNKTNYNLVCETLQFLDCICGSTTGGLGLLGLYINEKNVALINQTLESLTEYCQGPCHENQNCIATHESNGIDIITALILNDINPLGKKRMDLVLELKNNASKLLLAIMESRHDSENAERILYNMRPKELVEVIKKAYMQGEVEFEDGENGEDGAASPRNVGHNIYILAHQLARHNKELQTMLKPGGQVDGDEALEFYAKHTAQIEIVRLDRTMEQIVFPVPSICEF

Molecule: O=P(O)(O)OC1C(O)C(O)C(OP(=O)(O)O)C(OP(=O)(O)O)C1O (stereo not shown) [IP3, inositol-1,4,5-triphosphate]
- EC50 (Purkinje cells): ≥ 10000 nM
- Bmax value of IP3 binding to IP3R1 (IP3R1 [1]; in the absence of CARP): 1720 ± 234 pmol/mg
- Kd (IP3R1 [1]; in the absence of CARP): 18.2 ± 4.58 nM
- Bmax value of IP3 binding to IP3R1 (IP3R1 [1]; in the presence of CARP): 1630 ± 108 pmol/mg
- Kd (IP3R1 [1]; in the presence of CARP): 33.5 ± 2.07 nM
- EC50 (IP3R1 [2]): 100 to 1000 nM

B1: CARP: mouse carbonic anhydrase-related protein, 291 amino acids, SEQ ID NO:2 (protein, listed as Mus musculus)
chain: MADLSFIEDAVAFPEKEEDEEEEEEEGVEWGYEEGVEWGLVFPDANGEYQSPINLNSREARYDPSLLDVRLSPNYVVCRDCEVTNDGHTIQVILKSKSVLSGGPLPGGQEFELYEVRFHWGRENQRGSEHTVNFKAFPMELHLIHWNSTLFGSIDEAVGKPHGIAIIALFVQIGKEHVGLKAVTEILQDIQYKGKSKTIPCFNPNTLLPDPLLRDYWVYEGSLTIPPCSEGVTWILFRYPLTISQMQIEEFRRLRTHVKGVELVEGCDGILGDNFRPTQPLSDRVIRAAFQ
- binding of CARP to GST-EL in pull-down [3]: specifically binds to GST-EL, but not to GST alone
- effect of CARP on binding of IP3 to IP3R1 (IP3R1 [1]; 10 μg purified His-CARP, 0.5 μg purified IP3R1): inhibits binding of IP3 to IP3R1 not by antagonistic action but by reducing the affinity
- carbonic anhydrase activity [4]: no carbonic anhydrase activity

B2: GST-CARP: GST-fusion recombinant full-length CARP expressed in Escherichia coli (protein)
chain: B1 chain
modifications: left off: a dimerising Fc or GST
notes: GST-fusion recombinant full-length CARP expressed in Escherichia coli
- binding of IP3R1 to GST-CARP in pull-down (IP3R1 [5]): IP3R1 interacted with GST-CARP but not with GST
